In patent EP0189002B1, “Treatment of gastrointestinal disorders using 5-HT3 antagonists” (SANDOZ AG, priority 1984, dated 1986):

Tests used:
[1] = test system: muscle strips from different parts of the guinea pig stomach; experiment: Test A: field stimulation-induced contractions in guinea pig stomach muscle strips; details: facilitation of field stimulation-induced contractions
Text: The compounds of the invention facilitate field stimulation-induced contractions in muscle strips from different parts of the guinea pig stomach and are therefore indicated to increase decreased peristaltic movements in the stomach and to enhance gastric emptying in vivo. The test is effected as follows:-Male Dunkin-Hartley guinea pigs, 340-450 g, which had been starved overnight, were killed by cervical transsection and the stomach removed and placed in Krebs-Henseleit solution (NaCI 118.0, KCI 4.75, KH2P04 1.2, MgS04 1.2, CaC12 2.5, glucose 10 mM). Segments were taken from the body (approximately 20 mm long, 3-4 mm wide) with dissection in a plane suitable to investigate tension changes in the circular muscle layer. Tissues were placed in 30 ml organ baths containing oxygenated (95% 02, 5% C02) Krebs-Henseleit solution at 37 C. One gram tension was applied to the tissues which were allowed to equilibrate for 45-60 min. before electrical stimulation. […] Responses were measured as changes in gram tension, but to allow easier comparison between treatments, data were converted to show changes as percentage values. The significance of differences between control responses and those obtained in the presence of interacting drugs was assessed using the Mann-Whitney U test.

[2] = Test B: gastric emptying in conscious guinea pigs (X-ray passage of spheroids); assay type: in vivo; details: enhancing gastric emptying
Experimental: The compounds of the invention also induce gastric emptying as indicated in standard in vivo tests, e.g. in conscious guinea pigs having stomachs made atonic (i.e. having decreased peristaltic movements) by fasting and wherein the passage of glass spheroids was observed by X-ray techniques. The experiment is effected as follows: • Food was withdrawn for 14 hours before the measurement of gastric emptying. The experiment was conducted under low illumination which minimal noise and disturbance, and was carried out only by those experimentors who had daily contact with the guinea pigs and who carried out the initial training to accustom the guinea pigs to handling. Therefore, animals were subject to minimal stress. […] Gastric emptying was measured as the number of spheroids leaving the stomach.
Six guinea pigs were used at each dose level of drug and responses compared to those of guinea pigs receiving the appropriate vehicle. The significance of differences between drug and control responses was assessed using the Mann Whitney U test.

[3] = Test C: inhibition of 5-hydroxytryptophan (5-HTP) induced increase in gastrointestinal motility (charcoal transit); assay type: in vivo, NMRI mice; details: 30 minutes before 5-HTP 3 mg/kg, mice
Experimental: In a further test the inhibition of the increase in gastrointestinal motility induced by 5-hydroxytryptophan (5-HTP) by the compounds of the invention was observed.
Male NMRI mice (18-32 g in weight) are deprived of food 20 hours before the test. Water is not limited. The animals are separated by a barrier from their straw and access to feces. At the beginning of the test the animals are separated in individual single cages and water is removed.
All animals were treated with the test compound or saline. l.p. administration was used. Injection volume was 0.1 ml/10 g. 30 minutes after pre-treatment 5-HTP or saline was administered. Injection volume 0.1 ml /10 g. Dose 3 mg/kg. At the same time charcoal was administered perorally (10% suspension in water; 0.1 ml/10g). 45 minutes after the start of the experiment the animals were killed. The intestines from the stomach to the rectum were examined. For each animal the transit distance of the front of the charcoal meal along the intestine was measured. The distance was ascertained as a percentage of the whole intestinal length. Groups of at least 3 animals were used.

[4] = assay type: in vivo, NMRI mice; details: cholera toxin challenged mice
[5] = test system: high affinity 5-HT receptor; experiment: 5-HT induced contraction of isolated longitudinal muscle of guinea pig ileum, high affinity receptor; details: guinea pig ileum longitudinal muscle strip, 5-HT as agonist
Text: (§1) The isolated longitudinal muscle of the guinea pig ileum with its adhering myenteric plexus is a well established model which permits investigation of the mechanism of action of various neurtransmitters.
(§2) Male guinea pigs (200-400 g) were killed by a blow on the head and exsanguinated. A length of small intestine was removed about 2 cm from the ileo-caecal valve. The mesentery was carefully removed and the ileum was stretched over a glass rod. By stroking tangentially away from the mesenteric attachment with a wad of cotton wool, the longitudinal muscle layer was separated and stripped from the unterlying circular muscle. Longitudinal muscle strips, 3-4 cm length, were mounted in a 10 ml organ bath containing Tyrode solution at 37 ° C and bubbled with 5% carbon dioxide in oxygen. […] Contractions were recorded with an isotonic pendulum lever. […]
(§3) Non-cumulative concentration-response curves for 5-HT were established by adding increasing concentrations of the agonist to the organ bath at intervals of at least 15 min. […] The contractions expressed as percentage of the maximal response to 5-HT obtained from several preparations were plotted as mean values in order to obtain log-concentration-response curves. Inhibition constants were expressed in the form of pA2 values which were graphically determined according to conventional methods (Arunlakshana and Schild, 1959. Mc Kay 1978). […]

[6] = target: T1, low affinity 5-HT receptors (Cavia porcellus, UniProt O70212); experiment: 5-HT induced contraction of isolated longitudinal muscle of guinea pig ileum, low affinity receptor; details: guinea pig ileum longitudinal muscle strip, 5-HT as agonist
T1 construct: Longitudinal muscle strips, 3-4 cm length, were mounted in a 10 ml organ bath; from tissue; host or cells: guinea pig ileum longitudinal muscle with adhering myenteric plexus
T1 sequence (O70212 20-490): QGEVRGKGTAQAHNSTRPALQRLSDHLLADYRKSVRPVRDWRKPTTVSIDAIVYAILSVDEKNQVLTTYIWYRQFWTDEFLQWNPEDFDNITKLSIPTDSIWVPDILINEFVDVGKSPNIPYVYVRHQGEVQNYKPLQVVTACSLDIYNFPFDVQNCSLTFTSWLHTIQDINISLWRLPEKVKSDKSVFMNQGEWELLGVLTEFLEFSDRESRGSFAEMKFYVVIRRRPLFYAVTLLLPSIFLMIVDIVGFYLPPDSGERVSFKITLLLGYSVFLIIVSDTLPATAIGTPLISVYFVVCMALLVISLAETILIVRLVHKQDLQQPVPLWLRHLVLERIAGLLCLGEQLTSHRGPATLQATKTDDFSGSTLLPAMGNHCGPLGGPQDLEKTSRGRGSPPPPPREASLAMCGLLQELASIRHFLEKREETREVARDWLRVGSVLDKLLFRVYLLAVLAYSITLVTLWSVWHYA
Text: as §1, §2, §3

dopamine binding sites = details: tritiated haloperidol; cited from earlier work

Structure (SMILES) | ED50 i.p. [3] | pD'2 high affinity receptor [5] | pA2 low affinity receptor [6] | also measured
CN1[C@@H]2CC[C@H]1C[C@@H](OC(=O)c1c[nH]c3ccccc13)C2 [Compound E, Indol-3-yl carboxylic acid endo-8-methyl-8-aza-bicyclo[3,2,1]-oct-3-yl ester] | 0.07 mg/kg | pD'2 = 5.7 | pA2 = 7.9 | times more active than metoclopramide [1]: 100 times; times more active than metoclopramide [2]: about 50 times; effect of an increase in the dose on stomach contents [4]: did not lead to a reduction in the stomach contents
CN1[C@@H]2CCC[C@H]1C[C@@H](OC(=O)c1csc3ccccc13)C2 [Compound F, Benzo[b]thiophen-3-yl carboxylic acid endo-9-methyl-asa-bicyclo-[3,3,1]non-3-yl ester] |  | pD'2 = 5.9 | pA2 = 9.4 | ED50 ([3]; Mus musculus, i.p.): 0.025 mg/kg
CN1[C@@H]2CCC[C@H]1C[C@@H](OC(=O)c1cn(C)c3ccc(F)cc13)C2 [Compound G, 5-fluoro-1-methyl-indol-3-yl carboxylic acid endo-9-methyl-9-aza-bicyclo[3,3,1]non-3-yl ester] | 0.002 mg/kg |  |  | 
CCN(CC)CCNC(=O)c1cc(Cl)c(N)cc1OC [metoclopramide] |  |  |  | IC50 (dopamine binding sites): ~170 nM
